For data set [1], the system named is primary human solid tumours. The conditions noted are these: Ajani et al. Invest New Drugs (1988) 6:79-83; cited from earlier work.
A further data set relates to patients. Conditions: patients receiving five daily doses; leading to some deaths; cited from earlier work.
The test system of the next data set is leukemia models in mice. Conditions: background statement; cited from earlier work.
A further data set can be described thus: in vivo. Conditions: mouse.
Data set [2] concerns human tumour xenografts in mice with colon, lung and mammary cancers. Conditions: background statement; cited from earlier work.
A further data set deals with L1210 (Mouse Leukemia). Nature of the data set: L1210 mouse leukemia model, survival. Format: in vivo, mice. The conditions noted are these: Mus musculus, L1210, ip, median day of death treated/control. The method, then:
L1210 is a syngeneic model (Mouse Leukemia) which may be used to define an optimal treatment regimen (doses and schedule) for subsequent testing of drugs in more expensive and time-consuming orthotopic human xenograft models. The model was performed with 5 mice per group, said mice being grafted at day 0 and the tested compounds being injected intraperitoneally (at the dose indicated in table 4) at days 1, 2, 3, 4, 7, 8, 9 and 10 respectively. The data shown in table 4 are T/C values which were calculated by dividing the median day of death in a treated group T by the median day of death in the control group C. T/C values of 130% or more (i.e. a prolongation of mice survival of 30% or more) indicate a significant prolongation of survival.
The experimental procedure of example 25 was repeated with compounds of examples 17, 19, 33 and 35, and the data obtained from this experiment are reported in table 7.

The test system of data set [3] is Six human cancer cell lines (Hs683, U-373MG, HCT-15, LoVo, A549, MCF-7). Nature of the data set: MTT test of overall cell growth. Conditions: Homo sapiens, 72 h, range of molar concentrations giving 50% inhibition of overall tumor cells growth; MTT, 72 hours incubation, six human cancer cell lines; read-out: IC50. The format is cell-based. As for the experimental part:
In order to characterize the in vitro activity of the compounds of the invention, MTT tests were performed to indirectly and rapidly measure, i.e. within 5 days, the effect of such a compound on the overall cell growth. The test measures the number of metabolically active living cells that are able to transform the yellow product 3-(4,5-dimethylthiazol-2-yl)-2,5-diphenyl tetrazolium bromide (herein referred as MTT) into the blue product formazan dye by mitochondrial reduction. The amount of formazan obtained at the end of the experiment was measured by means of a spectrophotometer and is directly proportional to the number of living cells. Determination of the optical density enables a quantitative measurement of the effect of the investigated compounds as compared to the control condition (untreated cells) and/or to other reference compounds (in casu mitonafide and amonafide).
Six human cancer cell lines described in table 1 were used in the MTT tests. These cell lines cover four histological cancer types, being glioma, colon, lung and breast cancers. Cells were allowed to grow in 96-well micro-wells with a flat bottom with an amount of 100 μl of cell suspension per well with 1,000 to 4,000 cells/well depending on the cell type used. Each cell line was seeded in an MEM 5% serum culture medium.
The detailed experimental procedure was as follows: after a 24-hour period of incubation at 37° C., the culture medium was replaced by 100 μl of fresh medium in which the compound to be tested was dissolved at the following molar concentrations: 10^−9 M, 5.10^−9 M, 10^−8 M, 5.10^−8 M, 10^−7 M, 5.10^−7 M, 10^−6 M, 5.10^−6 M and 10^−5 M. Each experiment was repeated 6 times.
After 72 hours of incubation at 37° C. with (experimental conditions) or without (control condition) the compound to be tested, the medium was replaced by 100 μl MTT dissolved in RPMI at a concentration of 1 mg/ml. The micro-wells were subsequently incubated during 3 hours at 37° C. and centrifuged at 400 g during 10 minutes. MTT was removed and formazan crystals formed were dissolved in 100 μl DMSO. The micro-wells were shaken for 5 minutes and read on a spectrophotometer at wavelengths of 570 nm (maximum formazan absorbance) and 630 nm (background noise).
For each experimental condition, the mean optical density was calculated, as well as the percentage of remaining living cells in comparison with the control.
On the technique in general: Formazan colour is commonly taken as a measure of viable cells.

Another data set concerns healthy animals. Conditions: single dose to healthy mice, 3 mice per group, survival and weights recorded up to 14 days post injection.
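For MTD in this document: highest single acute dose (intraperitoneal, intravenous, subcutaneous or oral) tolerated by tumor-free mice, assessed across five dose levels per drug.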

Experimental for healthy animals: (§1) The maximum tolerated dose (herein after MTD) is defined as the maximum amount of a given drug which can be administered acutely (i.e. in one intraperitoneal, intravenous, subcutaneous or oral single dose) to healthy animals, i.e. animals not grafted with tumors. The survival times and weights of the animals are recorded up to 14 days post injection. Five different doses of each drug are used for the determination of the MTD index. […] Each experimental group comprised 3 mice for the determination of the MTD index (expressed in mg/kg).
Experimental for in vivo: as §1

In the case of `CN(C)CCN1C(=O)c2cccc3cc(N)cc(c23)C1=O` [amonafide, N-(2-dimethylaminoethyl)-3-amino-1,8-naphthalimide, reference compound], in data set [1], the “activity in primary human solid tumours in vitro” value is listed as “poor activity”. Also, in the data set on patients, the myelotoxicity in patients entry is on record as “substantial myelotoxicity”. Besides, in the data set with leukemia models in mice, the “activity in leukemia models in mice” value is “only moderate activity”. Moreover, the MTD at 14 days in the data set “in vivo” came out at 40 mg/kg. The “activity in human tumour xenografts in mice” value in data set [2] is given as “no activity”. The response vs control in vivo at 2.5 mg/kg in the data set on L1210 (Mouse Leukemia) (read-out: T/C (%), dose 2.5 mg/kg intraperitoneally at days 1, 2, 3, 4, 7, 8, 9 and 10) came out at 120%. Further, in the data set on L1210 (Mouse Leukemia) (read-out: T/C (%), dose 5 mg/kg intraperitoneally at days 1, 2, 3, 4, 7, 8, 9 and 10), the response vs control in vivo at 5 mg/kg was determined as 140%. Further, the response vs control in vivo at 10 mg/kg in the data set with L1210 (Mouse Leukemia) (read-out: T/C (%), dose 10 mg/kg intraperitoneally at days 1, 2, 3, 4, 7, 8, 9 and 10) stood at 120%. The response vs control in vivo at 20 mg/kg in the data set with L1210 (Mouse Leukemia) (read-out: T/C (%), dose 20 mg/kg intraperitoneally at days 1, 2, 3, 4, 7, 8, 9 and 10) amounted to 120%. Moreover, in data set [3], the IC50 (usually the concentration needed to halve the response being measured) lay in the range of 1 to 5 µM.
Take `CN(C)CCN1C(=O)c2cccc3cc(/N=C\c4cc(O)ccc4O)cc(c23)C1=O.Cl` [Example 34]: the MTD with healthy animals is 40 mg/kg.

The values are drawn from patent US20070117836A1, “NAPTHALIMIDE DERIVATIVES, METHODS FOR THEIR PRODUCTION AND PHARMACEUTICAL COMPOSITIONS THEREFROM” (priority 2004, published 2007).
